Consider 22 compounds from PubChem BioAssay (NCI).

Where “and” joins values, the source holds several entries; their conditions need not be identical. Identical values can stand only once.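 96-well plates; 48 h exposure; 5 concentrations. Endpoints by linear interpolation between flanking doses. Not reached: highest tested concentration assigned. At the GI50, growth is halved. TGI: total growth inhibition.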

The subject of test [1] is MCF7 breast. As to the kind of experiment: DTP human tumour cell line panel, 48 h.
The subject of test [2] is BT-549 breast. Nature of the test: DTP human tumour cell line panel, 48 h.

As for `O=c1c(O)cccc2cc(O)c(O)c(O)c12`, in test [1], the GI50 was 6.46 µM and the TGI turned out to be 23.9 µM.

For `COc1ccc(-c2nc(C(=O)c3ccccc3)n(CC(=O)c3ccccc3)c2-c2ccc(OC)cc2)cc1`, in test [2], the GI50 is greater than 100 µM and the TGI was greater than 100 µM. Further, in test [1], the GI50 was greater than 100 µM and the TGI is greater than 100 µM.

`COC(=O)c1c(O)c([N+](=O)[O-])cc2c1c1c(n2Cc2ccccc2)C(=O)c2ccccc2C1=O`: in test [2], the GI50 was 5.9 µM and the TGI amounted to 51.5 µM. In test [1], the GI50 was 5.86 µM and the TGI came out at 46.1 µM.

For the compound `Nc1ncnc2c1c(-c1cccc(OCc3ccccc3)c1)cn2C1CC(CN2CCC2)C1` (centres undefined), in test [2], the GI50 is 2.57 µM and 5.84 µM; the total growth inhibition concentration (TGI) is 6.91 µM and > 10 µM. Moreover, in test [1], the 50% growth inhibitory concentration (GI50) is 0.092 µM and 0.369 µM; the TGI was 3.74 µM and 5.55 µM.

In the case of `COc1cc(Nc2ncc(F)c(Nc3ccc4c(n3)NC(=O)C(C)(C)O4)n2)cc(OC)c1OC`, the GI50 in test [2] was 3.24 µM; in test [1] it was 3.93 µM. Besides, the total growth inhibition concentration (TGI) in test [2] and in test [1] was greater than 10 µM throughout.

Turning to `Clc1ccc(C2=Nn3c(nnc3-c3cc(Cl)cc(Cl)c3Cl)SC2)cc1`, in test [2], the GI50 was 17.6 µM and the TGI worked out at 47.7 µM. For the same compound, in test [1], the GI50 is 11.8 µM and the TGI is 92.7 µM.

Take `CCN(CC)CCCC(C)Nc1nc(C)cc(Nc2ccc3nc(C)cc(N)c3c2)n1` (centres undefined): in test [2], the GI50 was 19.2 µM and the total growth inhibition concentration (TGI) was found to be 56.7 µM. In test [1], the GI50 is 31.2 µM and the concentration for total growth inhibition (TGI) amounted to 78.3 µM.

As for `COC1=CC23CCCN2CCc2cc4c(cc2C3C1O)OCO4` (centres undefined), the TGI in test [2] and in test [1] was greater than 100 µM throughout.

For `N#CC(C#N)N=Nc1ccc(Br)cc1`, in test [2], the GI50 was 4.18 µM and the concentration for total growth inhibition (TGI) turned out to be 31.5 µM. In test [1], the GI50 was 2.74 µM and the concentration for total growth inhibition (TGI) is greater than 51.7 µM.

For `C[C@@H]1Cc2c([nH]c3ccccc23)[C@@H](c2c(F)cc(NC3CN(CCCF)C3)cc2F)N1CC(F)(F)CO`, in test [2], the GI50 is 2.05 µM and the concentration for total growth inhibition (TGI) was determined as 4.04 µM. The same compound yielded a TGI in test [1] of 4.27 µM.

Turning to `CN1CCN(c2ccc(Nc3nc(N)c(C(=O)c4ccc5c(c4)OCCO5)s3)cc2)CC1`, the GI50 was 4.71 µM in test [2] and 2.85 µM in test [1]. The figures for the TGI in test [2] and in test [1] were 9.46 µM and 7.73 µM, respectively.

As to `CN(C)C/C=C/C(=O)Nc1cc2c(Nc3ccc(F)c(Cl)c3F)ncnc2cc1OCCOC(F)F`, the values for the GI50 in test [2] and in test [1] were 1.57 µM and 1.24 µM, respectively. Also, the TGI amounted to 6.86 µM in test [2] and 10.1 µM in test [1].

Regarding `CN1C(=O)[C@@H](NC(=O)[C@H](CCC(F)(F)F)[C@H](CCC(F)(F)F)C(N)=O)N=C(c2ccccc2)c2ccccc21`, in test [2], the GI50 is 88.8 µM and the TGI was greater than 100 µM. For the same compound, in test [1], the GI50 is 33.4 µM and the TGI was greater than 100 µM.

On to `O=C(Nc1ccccc1O)c1ccc(CNc2ccnc(C(F)(F)F)c2)cc1`, for which the GI50 in test [2] was 3.43 µM; in test [1] it was 4.43 µM. Moreover, the concentration for total growth inhibition (TGI) is 50 µM in test [2] and greater than 100 µM in test [1].

With `CCn1cc(-c2ccnc3[nH]ccc23)c(-c2cccc(NC(=O)Nc3ccc(OCc4ccccc4)cc3)c2)n1`, in test [2], the GI50 is greater than 21.9 µM and the TGI was greater than 25 µM. Moreover, in test [1], the GI50 was 8.15 µM and the TGI is greater than 25 µM.

Turning to `COc1ccc(/C=C2\CC(C)CC3C2=NN(C(C)=O)C3c2ccc(OC)cc2)cc1` (centres undefined), in test [2], the GI50 is 23 µM and the concentration for total growth inhibition (TGI) stood at 55.9 µM. Besides, in test [1], the GI50 was 20 µM and the TGI was found to be 63.3 µM.

In the case of `Fc1ccc(-c2ncn(C3CCNCC3)c2-c2ccnc(Oc3ccc(F)c(F)c3)n2)cc1`, the GI50 in test [2] is 12.1 µM; in test [1], 4.28 µM. In addition, the concentration for total growth inhibition (TGI) in test [2] was greater than 25 µM; in test [1], 8.27 µM.

`Cc1cc(Nc2c3ccccc3nc3ccccc23)ccc1NS(C)(=O)=O`: the GI50 in test [2] is 10.3 µM; in test [1] it was 3.99 µM. The results for the TGI in test [2] and in test [1] were 22.5 µM and 18.4 µM, respectively.

As to `Nc1ccccc1NC(=O)c1ccc(CCCC(=O)Nc2ccc(C3CC3N)cc2)cc1` (centres undefined), in test [2], the GI50 was 3.09 µM and the TGI came to 37.9 µM. Further, in test [1], the GI50 is 1.71 µM and the concentration for total growth inhibition (TGI) is greater than 100 µM.

Take `CCCCCCCCCCCCCCCC[N+](C)(CCO)Cc1cnc[nH]1` (centres undefined): in test [2], the GI50 is 2.52 µM and the TGI was determined as 7.05 µM. In test [1], the GI50 is 1.87 µM and the TGI was 13.9 µM.

On to `O=Cc1ccc(-c2ccc(-c3nc4ccccc4o3)cc2)s1`, for which, in test [2], the GI50 was 18 µM and the TGI turned out to be 52.6 µM.

As to `CCN(CC)c1ccc2c(c1)Oc1nc(N)c(C#N)c(N)c1C2Sc1ccc(OC)cc1` (centres undefined), in test [2], the GI50 is 1.53 µM and the TGI was found to be 2.95 µM.

The GI50 is the concentration that inhibits growth by half. What is called TGI is the concentration giving total growth inhibition. High values mean lower sensitivity of the cells, low ones greater sensitivity of the cells.
